According to patent EP4745134A1 (Jiangsu Yahong Meditech Co., Ltd., priority 2023, dated 2025):
Like-named read-outs stand apart in the source and are kept apart here.

Experiments:
HCT116 MTAP KO cells = experiment: Inhibitory activity against cell proliferation (CellTiter Glo, 6 days), HCT116 MTAP KO; assay type: cell-based; details: for IC50: Homo sapiens, HCT-116, 144 h, HCT116 MTAP KO cells, 6 days, CellTiter Glo, read-out: HCT116 MTAP KO IC50; for Selectivity HCT 116-WT/ HCT116 MTAP KO: ratio of IC50 HCT116-WT / HCT116 MTAP KO
Method in brief: (§1)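 Luminescence read-out (CellTiter Glo, 10 min shaking at room temperature) after 6 days of compound exposure; IC50 fitted against DMSO controls. Top dose 10000 nM, 4-fold steps, 8 points; 250 cells/well in McCoy's 5A + 10% FBS.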

HCT116-WT cells = experiment: Inhibitory activity against cell proliferation (CellTiter Glo, 6 days), HCT116-WT; assay type: cell-based; details: 144 h, HCT116-WT cells, 6 days, CellTiter Glo; read-out: HCT116-WT IC50
Method in brief: as §1

PRMT5-MTA = PRMT5-MTA (Homo sapiens, UniProt O14744); experiment: Enzymatic inhibitory activity against PRMT5-MTA (AlphaScreen); assay type: biochemical
Sequence of PRMT5-MTA (O14744 whole entry): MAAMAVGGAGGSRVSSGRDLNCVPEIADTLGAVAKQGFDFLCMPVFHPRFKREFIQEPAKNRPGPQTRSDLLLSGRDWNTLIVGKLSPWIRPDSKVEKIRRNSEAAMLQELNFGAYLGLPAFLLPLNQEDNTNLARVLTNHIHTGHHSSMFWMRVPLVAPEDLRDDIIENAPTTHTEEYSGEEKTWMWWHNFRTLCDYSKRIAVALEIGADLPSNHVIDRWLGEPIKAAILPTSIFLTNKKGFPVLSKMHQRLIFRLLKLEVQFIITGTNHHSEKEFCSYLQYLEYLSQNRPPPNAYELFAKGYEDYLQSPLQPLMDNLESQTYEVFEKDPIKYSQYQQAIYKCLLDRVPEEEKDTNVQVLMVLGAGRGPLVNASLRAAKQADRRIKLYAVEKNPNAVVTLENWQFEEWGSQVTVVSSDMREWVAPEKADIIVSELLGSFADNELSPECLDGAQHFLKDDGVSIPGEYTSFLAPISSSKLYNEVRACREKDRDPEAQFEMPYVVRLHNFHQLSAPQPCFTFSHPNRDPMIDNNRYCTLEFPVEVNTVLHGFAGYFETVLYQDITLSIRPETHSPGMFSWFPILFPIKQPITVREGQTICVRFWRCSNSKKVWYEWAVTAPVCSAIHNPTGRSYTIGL
Sequence of PRMT5-MTA (Q9BQA1 whole entry partner): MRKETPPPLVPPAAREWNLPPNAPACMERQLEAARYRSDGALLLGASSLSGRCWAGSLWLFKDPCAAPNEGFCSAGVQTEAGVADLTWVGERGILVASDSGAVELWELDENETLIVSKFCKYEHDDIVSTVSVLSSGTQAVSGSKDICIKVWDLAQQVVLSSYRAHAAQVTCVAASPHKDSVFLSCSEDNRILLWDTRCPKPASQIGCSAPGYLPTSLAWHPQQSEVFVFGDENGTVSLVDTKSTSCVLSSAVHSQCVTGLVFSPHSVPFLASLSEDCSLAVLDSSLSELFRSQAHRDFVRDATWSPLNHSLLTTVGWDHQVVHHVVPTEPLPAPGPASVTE
Method in brief: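 PRMT5/[…] (1 nM) was preincubated for 30 min at room temperature with 1 µM […] and 2.5 µM SAM, then exposed to compound (10-point, 3-fold from 1000 nM) for 15 min at 23 °C. Histone H4 substrate (5 nM) was added and reacted for 45 min at 23 °C. Symmetric dimethyl-R3 H4 was detected by AlphaScreen and IC50 calculated.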

Row | SMILES | IC50 (HCT116 MTAP KO cells) [µM] | Selectivity HCT 116-WT/ HCT116 MTAP KO (HCT116 MTAP KO cells) | IC50 (HCT116-WT cells) [µM] | IC50 (PRMT5-MTA) [µM] | IC50 (PRMT5-MTA; read-out: IC50) [µM]
1 | Cn1ncc2c(N)nc3cc(Cl)c(C(=O)N4CC(C)(F)CN4c4ccccc4F)cc3c21 (stereo not drawn) [Example 419] | 0.014 | 16.14 | 0.226 | 0.0046 | –
2 | Cn1ncc2c(N)nc3cc(Cl)c(C(=O)N4CC(C)(F)CN4c4ncc(Cl)cc4F)cc3c21 (stereo not drawn) [Example 421, (4-amino-7-chloro-1-methyl-1H-pyrazolo [4,3-c]quinolin-8-yl)(2-(5-chloro-3-fluoropyridin-2-yl)-4-fluoro-4-methylpyrazolidin-1-yl)methanone] | 0.029 | 23.07 | 0.669 | – | 0.0033
3 | Cc1cc2nc(N)c3cnn(C)c3c2cc1C(=O)N1CC(C)(F)CN1c1ncccc1F (stereo not drawn) [Example 422, (4-amino-1,7-dimethyl-1H-pyrazolo[4,3-c]quinolin-8-yl)(4-fluoro-2-(3-fluoropyridin-2-yl)-4-methylpyrazolidin-1-yl)metha none] | 0.021 | 38.38 | 0.806 | – | 0.0093
4 | CCC1(F)CN(C(=O)c2cc3c(cc2C)nc(N)c2cnn(C)c23)N(c2ncccc2F)C1 (stereo not drawn) [Example 423, (4-amino-1,7-dimethyl-1H-pyrazolo[4,3-c]quinolin-8-yl)(4-ethyl-4-fluoro-2-(3-fluoropyridin-2-yl)pyrazolidin-1-yl)methanone] | 0.025 | 27.28 | 0.682 | – | 0.0067
5 | Cn1ncc2c(N)nc3cc(Cl)c(C(=O)N4CC(C)(F)CN4c4ncc(F)cc4F)cc3c21 (stereo not drawn) [Example 424, (4-amino-7-chloro-1-methyl-1H-pyrazolo [4,3-c]quinolin-8-yl)(2-(3,5-2 fluoropyridin-2-yl)-4-fluoro-4-methylpyrazolidin-1-yl)methanone] | 0.023 | 16.26 | 0.374 | – | 0.0073
6 | Cn1ncc2c(N)nc3cc(Cl)c(C(=O)N4CC(C)(F)CN4c4ncccc4F)cc3c21 (stereo not drawn) [Example 425, (4-amino-7-chloro-1-methyl-1H-pyrazolo [4,3-c]quinolin-8-yl)(4-fluoro-2-(3-fluoropyridin-2-yl)-4-methylpyrazolidin-1-yl)m ethanone] | 0.054 | 15.74 | 0.85 | – | 0.0083
7 | Cc1cc2nc(N)c3cnn(C)c3c2cc1C(=O)N1CC(C)(O)CN1c1ncccc1F (stereo not drawn) [Example 427, (4-amino-1,7-dimethyl-1H-pyrazolo[4,3-c]quinolin-8-yl)(2-(3-fluoropyridin-2-yl)-4-hydroxy-4-methylpyrazolin-1-yl)methanone] | 0.235 | >42.55 | > 10 | – | 0.0062
8 | C=C1CN(C(=O)c2cc3c(cc2Cl)nc(N)c2cnn(C)c23)N(c2ncc(Br)cc2F)C1 [Example 430, (4-amino-7-chloro-1-methyl-1H-pyrazolo [4,3-c]quinolin-8-yl)(2-(5-bromo-3-fluor opyridin-2-yl)-4-methylenepyrazolidin-1-yl)methanone] | 0.022 | 26.59 | 0.585 | – | 0.0055
9 | C=C1CN(C(=O)c2cc3c(cc2Cl)nc(N)c2cnn(C)c23)N(c2ccccc2F)C1 [Example 431, (4-amino-7-chloro-1-methyl-1H-pyrazolo [4,3-c]quinolin-8-yl)(2-(2-fluorophenyl)-4-methylenepyrazolidin-1-yl)methanone] | 0.01 | 24.80 | 0.248 | – | 0.0054
10 | C=C1CN(C(=O)c2cc3c(cc2Cl)nc(N)c2cnn(C)c23)N(c2ncc(F)cc2F)C1 [Example 432, (4-amino-7-chloro-1-methyl-1H-pyrazolo [4,3-c]quinolin-8-yl)(2-(3,5-2 fluoropyridin-2-yl)-4-methylenepyrazolidin-1-yl)methanone] | 0.016 | 41.06 | 0.657 | – | 0.0045
11 | C=C1CN(C(=O)c2cc3c(cc2Cl)nc(N)c2cnn(C)c23)N(c2ncccc2F)C1 [Example 433, (4-amino-7-chloro-1-methyl-1H-pyrazolo [4,3-c]quinolin-8-yl)(2-(3-fluoropyridin-2-yl)-4-methylenepyrazolidin-1-yl)methanone] | 0.033 | 33.64 | 1.11 | – | 0.0038
12 | C=C1CN(C(=O)c2cc3c(cc2Cl)nc(N)c2cnn(C)c23)N(c2ncc(Cl)cc2F)C1 [Example 434, (4-amino-7-chloro-1-methyl-1H-pyrazolo [4,3-c]quinolin-8-yl)(2-(5-chloro-3-fluoropyridin-2-yl)-4-methylenepyrazolidin-1-y 1)methanone] | 0.036 | 25.17 | 0.906 | – | 0.0061
